Results taken from patent US20100104534A1, “HYDRAZIDO-PEPTIDES AS INHIBITORS OF HCV NS3-PROTEASE” (priority 2007, published 2010).

Test system: replicon
Test: Replicon assay
Format: cell-based

Structure (SMILES) | IC50 [nM]
CCCN(NC(=O)[C@@H]1[C@@H]2[C@H](CN1C(=O)[C@@H](NC(=O)N[C@H](CN1C(=O)C3CCC(C3)C1=O)C(C)(C)C)C(C)(C)C)C2(C)C)C(=O)N[C@@H](C)c1ccccc1 [Compound 5] | ≤ 500
CCCN(NC(=O)[C@@H]1[C@@H]2[C@H](CN1C(=O)[C@@H](NC(=O)N[C@H](CN(C)S(C)(=O)=O)C(C)(C)C)C(C)(C)C)C2(C)C)C(=O)N[C@@H](C)c1ccccc1 [Compound 2] | ≤ 500
CCCN(NC(=O)[C@@H]1[C@@H]2[C@H](CN1C(=O)[C@@H](NC(=O)NC1(CS(=O)(=O)C(C)(C)C)CCCCC1)C1(C)CCCCC1)C2(C)C)C(=O)N[C@@H](C)c1ccccc1 [Compound 1] | 500 to 3000
CCCN(NC(=O)[C@@H]1[C@@H]2[C@H](CN1C(=O)[C@@H](NC(=O)N[C@H](CN1C(=O)CC(C)(C)CC1=O)C(C)(C)C)C(C)(C)C)C2(C)C)C(=O)N[C@@H](C)c1ccccc1 [Compound 3] | ≤ 500
C[C@H](NC(=O)N(CC1CC1)NC(=O)[C@@H]1[C@@H]2[C@H](CN1C(=O)[C@@H](NC(=O)N[C@H](CN1C(=O)C3CCC(C3)C1=O)C(C)(C)C)C(C)(C)C)C2(C)C)c1ccccc1 [Compound 6] | 500 to 3000
